Experimental data published in US9815796B2 (Merck Sharp & Dohme Corp., priority 2013, dated 2017).
Like-named read-outs stand apart in the source and are kept apart here.

Key:
human PDE2A1 = human PDE2A1 (Homo sapiens (Human), UniProt O00408); assay: IMAP FP PDE selectivity panel, human PDE2A1; assay type: biochemical
Method in brief: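 GST-tagged human PDE2A1 expressed in insect cells, run at room temperature for 60 min with 50 nM FAM-cAMP containing 1000 nM cGMP, pH 7.2 Tris/MgCl2 buffer. IMAP fluorescence polarization read after binding step.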

Rhesus PDE2A3 = Rhesus PDE2A3 (Macaca mulatta, UniProt B3VTJ2); assay: PDE2 fluorescence polarization (IMAP FP) inhibition assay, rhesus enzyme; assay type: biochemical, rhesus macaque
Method in brief: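 Rhesus PDE2A3 came from lysate of transiently transfected AD293 cells, diluted to give 20% substrate conversion. Substrate was 50 nM FAM-cAMP with 1 uM cGMP activator in Tris pH 7.2/MgCl2 buffer, run 60 min at room temperature over 10-point 3-fold dilutions in 1% DMSO. Read-out was IMAP fluorescence polarization (mP) after ≥1 h binding.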

[1] = Human PDE2, Lab A, read-out: Human PDE2 Ki (nM) - Lab A
[2] = Rhesus PDE2, Lab A, read-out: Rhesus PDE2 Ki (nM) - Lab A
[3] = Human PDE2, Lab B, read-out: Human PDE2 Ki (nM) - Lab B
[4] = Rhesus PDE2, Lab B, read-out: Rhesus PDE2 Ki (nM) - Lab B

Sequence of Rhesus PDE2A3 (B3VTJ2 1-941): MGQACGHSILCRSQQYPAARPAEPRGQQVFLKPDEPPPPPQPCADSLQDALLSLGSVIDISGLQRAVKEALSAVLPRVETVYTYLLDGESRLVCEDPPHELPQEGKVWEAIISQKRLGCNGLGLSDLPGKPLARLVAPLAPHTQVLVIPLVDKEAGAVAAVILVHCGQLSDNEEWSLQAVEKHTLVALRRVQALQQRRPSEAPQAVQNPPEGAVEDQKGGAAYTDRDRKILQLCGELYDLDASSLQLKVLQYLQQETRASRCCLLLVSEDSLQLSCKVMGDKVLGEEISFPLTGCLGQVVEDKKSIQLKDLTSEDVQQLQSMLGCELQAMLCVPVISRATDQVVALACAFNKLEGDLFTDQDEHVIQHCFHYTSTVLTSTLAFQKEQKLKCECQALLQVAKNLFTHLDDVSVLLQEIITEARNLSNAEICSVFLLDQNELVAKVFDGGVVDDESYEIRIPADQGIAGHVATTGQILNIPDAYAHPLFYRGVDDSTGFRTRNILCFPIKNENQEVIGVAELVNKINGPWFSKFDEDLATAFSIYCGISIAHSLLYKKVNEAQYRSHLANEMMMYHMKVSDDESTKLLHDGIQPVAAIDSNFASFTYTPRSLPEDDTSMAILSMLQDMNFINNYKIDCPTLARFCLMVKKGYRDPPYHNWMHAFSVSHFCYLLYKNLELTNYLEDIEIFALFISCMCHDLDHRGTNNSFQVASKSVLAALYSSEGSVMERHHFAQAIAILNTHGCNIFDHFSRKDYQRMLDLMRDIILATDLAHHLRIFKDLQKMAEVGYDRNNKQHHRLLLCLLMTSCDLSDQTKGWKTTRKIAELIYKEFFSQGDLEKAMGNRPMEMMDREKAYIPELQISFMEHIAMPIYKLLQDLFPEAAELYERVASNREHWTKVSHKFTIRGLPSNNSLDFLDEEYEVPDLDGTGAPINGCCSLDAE
Sequence of human PDE2A1 (O00408 other isoform, or with tags, fused parts or gaps): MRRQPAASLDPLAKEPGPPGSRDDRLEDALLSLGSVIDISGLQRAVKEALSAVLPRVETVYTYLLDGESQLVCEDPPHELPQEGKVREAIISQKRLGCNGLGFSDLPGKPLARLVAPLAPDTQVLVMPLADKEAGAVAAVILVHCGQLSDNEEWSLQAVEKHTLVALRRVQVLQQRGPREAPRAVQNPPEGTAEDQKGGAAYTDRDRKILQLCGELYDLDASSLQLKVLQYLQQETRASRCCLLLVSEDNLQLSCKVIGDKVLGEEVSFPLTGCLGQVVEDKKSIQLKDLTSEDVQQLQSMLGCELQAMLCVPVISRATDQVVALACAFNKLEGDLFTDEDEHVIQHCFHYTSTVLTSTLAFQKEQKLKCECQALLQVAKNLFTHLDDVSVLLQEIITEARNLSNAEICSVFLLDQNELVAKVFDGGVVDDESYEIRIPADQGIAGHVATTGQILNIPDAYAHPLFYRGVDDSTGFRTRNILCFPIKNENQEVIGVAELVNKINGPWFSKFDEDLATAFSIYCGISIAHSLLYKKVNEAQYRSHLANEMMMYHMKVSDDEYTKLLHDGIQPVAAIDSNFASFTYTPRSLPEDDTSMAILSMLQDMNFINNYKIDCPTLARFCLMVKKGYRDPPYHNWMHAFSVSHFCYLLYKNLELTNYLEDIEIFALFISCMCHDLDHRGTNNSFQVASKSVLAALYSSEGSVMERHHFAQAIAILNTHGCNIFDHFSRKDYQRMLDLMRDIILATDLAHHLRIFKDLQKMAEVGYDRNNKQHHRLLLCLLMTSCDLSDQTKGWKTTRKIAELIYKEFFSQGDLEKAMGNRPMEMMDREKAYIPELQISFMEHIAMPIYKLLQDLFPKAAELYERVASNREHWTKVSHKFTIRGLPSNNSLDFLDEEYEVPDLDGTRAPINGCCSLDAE

| Compound | Ki (human PDE2A1; [1]) [nM] | Ki (Rhesus PDE2A3; [2]) [nM] | Ki (human PDE2A1; [3]) [nM] | Ki (Rhesus PDE2A3; [4]) [nM] |
| --- | --- | --- | --- | --- |
| CSCc1nc(C(=O)N[C@H](C)c2ccc(C(F)(F)F)cc2)cc(=O)[nH]1 [Example 36, 2-[(methylsulfanyl)methyl]-6-oxo-N-{(1R)-1-[4-(trifluoromethyl)phenyl]ethyl}-1,6-dihydropyrimidine-4-carboxamide] | 116 | 163 |  |  |
| O=C(N[C@@H](c1ccc(OC(F)(F)F)cc1)C1CC1)c1cc(=O)[nH]c(C2CC2)n1 [Example 211, 2-cyclopropyl-N-{(R)-cyclopropyl[4-(trifluoromethoxy)phenyl]methyl}-6-oxo-1,6-dihydropyrimidine-4-carboxamide] | 2.5 | 7.1 |  |  |
| COc1ccc(Cc2nc(C(=O)N[C@@H](c3ccc(C(F)(F)F)c(F)c3)C(C)C)cc(=O)[nH]2)cc1 [Example 472, N-{(1R)-1-[3-fluoro-4-(trifluoromethyl)phenyl]-2-methylpropyl}-2-(4-methoxybenzyl)-6-oxo-1,6-dihydropyrimidine-4-carboxamide] |  |  | 1.7 | 1.6 |
| Cc1nc(C(=O)NC(C)c2ccc(C(F)(F)F)cn2)cc(=O)[nH]1 (stereo not shown) [Example 17, 2-methyl-6-oxo-N-{1-[5-(trifluoromethyl)pyridin-2-yl]ethyl}-1,6-dihydropyrimidine-4-carboxamide] | 917 | 1160 |  |  |
| Cc1nc(C(=O)N[C@@H](c2ccc(CC(F)(F)F)cc2)C(C)(C)C)cc(=O)[nH]1 [Example 61, (R)-N-(2,2-dimethyl-1-(4-(2,2,2-trifluoroethyl)phenyl)propyl)-2-methyl-6-oxo-1,6-dihydropyrimidine-4-carboxamide] |  |  | 8.2 | 10 |
| CC(C)[C@@H](NC(=O)c1cc(=O)[nH]c(-c2ccccc2)n1)c1ccc(C(F)(F)F)cc1 [Example 167, N-{(1R)-2-methyl-1-[4-(trifluoromethyl)phenyl]propyl}-6-oxo-2-phenyl-1,6-dihydropyrimidine-4-carboxamide] | 1.9 | 2.3 | 2.3 | 3.5 |
| Cc1nc(C(=O)N[C@@H](c2ccc(C3CC3)cc2)C(C)(C)C)cc(=O)[nH]1 [Example 63, (R)-N-(1-(4-cyclopropylphenyl)-2,2-dimethylpropyl)-2-methyl-6-oxo-1,6-dihydropyrimidine-4-carboxamide] |  |  | 2 | 1.9 |
| COc1ccc(Cc2nc(C(=O)N[C@@H](c3ccc(C(F)(F)F)cc3)C(C)(C)C)cc(=O)[nH]2)cc1 [Example 455, N-{(1R)-2,2-dimethyl-1-[4-(trifluoromethyl)phenyl]propyl}-2-(4-methoxybenzyl)-6-oxo-1,6-dihydropyrimidine-4-carboxamide] |  |  | 0.6 | 0.68 |
| O=C(NC1(c2ccc(C(F)(F)F)cc2)CC1)c1cc(=O)[nH]c(-c2ccccc2)n1 [Example 276, 6-oxo-2-phenyl-N-{1-[4-(trifluoromethyl)phenyl]cyclopropyl}-1,6-dihydropyrimidine-4-carboxamide] | 3.8 | 4.2 |  |  |
| O=C(N[C@@H](c1ccc(C(F)(F)F)c(F)c1)C1CC1)c1cc(=O)[nH]c(C2CC2)n1 [Example 210, 2-cyclopropyl-N-{(R)-cyclopropyl[3-fluoro-4-(trifluoromethyl)phenyl]methyl}-6-oxo-1,6-dihydropyrimidine-4-carboxamide] | 3 | 6 |  |  |
| COc1cc(C(C)NC(=O)c2cc(=O)[nH]c(-c3ccccc3)n2)ccc1C(F)(F)F (stereo not shown) [Example 155] | 143 | 119 |  |  |
| COC(=O)C(NC(=O)c1cc(=O)[nH]c(C)n1)c1ccc(C(F)(F)F)cc1 (racemic) [Example 325, Methyl 2-(2-methyl-6-oxo-1,6-dihydropyrimidine-4-carboxamido)-2-(4-(trifluoromethyl)phenyl)-acetate] | 687 | 1100 |  |  |
| Cc1nc(C(=O)NC(C(=O)O)c2ccc(C(F)(F)F)cc2)cc(=O)[nH]1 (racemic) [Example 326, 2-(2-Methyl-6-oxo-1,6-dihydropyrimidine-4-carboxamido)-2-(4-(trifluoromethyl)phenyl)acetic acid] | 67 | 70 |  |  |
| COc1cc(OC(F)(F)F)ccc1C(C)NC(=O)c1cc(=O)[nH]c(-c2ccccc2)n1 (stereo not shown) [Example 187, N-{1-[2-methoxy-4-(trifluoromethoxy)phenyl]ethyl}-6-oxo-2-phenyl-1,6-dihydropyrimidine-4-carboxamide] | 3.1 | 4.5 |  |  |

The remaining lines, values ahead:

| Ki (human PDE2A1; [1]) [nM] | Ki (Rhesus PDE2A3; [2]) [nM] | Ki (human PDE2A1; [3]) [nM] | Ki (Rhesus PDE2A3; [4]) [nM] | Compound |
| --- | --- | --- | --- | --- |
|  |  | 29 | 42 | COc1ccc(C(C)(C)c2nc(C(=O)N[C@@H](c3ccc(OC(F)(F)F)c(F)c3)C(C)C)cc(=O)[nH]2)cc1 [Example 492, N-{(1R)-1-[3-fluoro-4-(trifluoromethoxy)phenyl]-2-methylpropyl}-2-[1-(4-methoxyphenyl)-1-methylethyl]-6-oxo-1,6-dihydropyrimidine-4-carboxamide] |
|  |  | 42 | 32 | Cc1nc(C(=O)NC2(c3ccc(S(F)(F)(F)(F)F)cc3)CC2)cc(=O)[nH]1 [Example 622, 2-methyl-6-oxo-N-{1-[4-(pentafluoro-λ^6-sulfanyl)phenyl]cyclopropyl}-1,6-dihydropyrimidine-4-carboxamide] |
|  |  | 2.9 | 3 | CC[C@@H](NC(=O)c1cc(=O)[nH]c(Cc2ccc(OC)cc2)n1)c1ccc(C(F)(F)F)c(F)c1 [Example 483, N-{(1R)-1-[3-fluoro-4-(trifluoromethyl)phenyl]propyl}-2-(4-methoxybenzyl)-6-oxo-1,6-dihydropyrimidine-4-carboxamide] |
|  |  | 30 | 42 | CC[C@@H](NC(=O)c1cc(=O)[nH]c(C(C)(C)c2ccc(OC)cc2)n1)c1ccc(OC(F)(F)F)c(F)c1 [Example 504, N-{(1R)-1-[3-fluoro-4-(trifluoromethoxy)phenyl]propyl}-2-[1-(4-methoxyphenyl)-1-methylethyl]-6-oxo-1,6-dihydropyrimidine-4-carboxamide] |
|  |  | 1.9 | 2.1 | COc1ccc(Cc2nc(C(=O)N[C@@H](c3ccc(S(F)(F)(F)(F)F)cc3)C(C)C)cc(=O)[nH]2)cc1F [Example 513, 2-(3-fluoro-4-methoxybenzyl)-N-{(1R)-2-methyl-1-[4-(pentafluoro-λ^6-sulfanyl)phenyl]propyl}-6-oxo-1,6-dihydropyrimidine-4-carboxamide] |
|  |  | 34 | 30 | Cc1nc(C(=O)NC(C)(c2ccc(S(F)(F)(F)(F)F)cc2)C(C)C)cc(=O)[nH]1 (single isomer, unassigned) [Example 663, (R)- or (S)-N-{1,2-dimethyl-1-[4-(pentafluoro-λ^6-sulfanyl)phenyl]propyl}-2-methyl-6-oxo-1,6-dihydropyrimidine-4-carhoxamide] |
|  |  | 3.6 | 4.7 | CC1(C(NC(=O)c2cc(=O)[nH]c(C3CC3)n2)c2ccc(SC(F)(F)F)c(F)c2)CC1 (single isomer, unassigned) [Example 704, (R)- or (S)-2-cyclopropyl-N-((3 fluoro-4-((trifluorormethyl)thio)phenyl)(1-methylcyclopropyl)methyl)-6-oxo-1,6-dihydropyrimidine-4-carboxamide] |
|  |  | 1.7 | 2.1 | COc1ccc(Cc2nc(C(=O)N[C@@H](c3ccc(OC(F)(F)F)c(F)c3)C3CC3)cc(=O)[nH]2)cc1 [Example 478, N-{(R)-cyclopropyl[3-fluoro-4-(trifluoromethoxy)phenyl]methyl}-2-(4-methoxybenzyl)-6-oxo-1,6-dihydropyrimidine-4-carboxamide] |
